Measurements from patent publication US20220265830A1, “LONG-ACTING FORMULATIONS AND VEHICLES” (DURECT CORPORATION, priority 2019, published 2022).
Converted amounts (≈) assume the structure as drawn. Like-named read-outs stand apart in the source and are kept apart here. Marks after values point to notes of the source that are not given here.

Key:
[1] = in vivo; cited from earlier work
[2] = Experimental, cited from earlier work
[3] = cited from earlier work
[4] = Experimental; cited from earlier work
[5] = Experimental (Buprenorphine at 25° C.); cited from earlier work
physchem = conditions: BB
Experimental: Briefly, samples were prepared by mixing active agent and solvent and were tested at various time points after mixing and after storage at various temperatures. The samples were tested for the solubility of the active agent (mg/mL), calculated as the free base equivalent. Each data point is the average of two replicates unless otherwise specified.

Molecule | Oral Half-life [1] | logP [4] | also measured
O=C1CCc2ccc(OCCCCN3CCN(c4cccc(Cl)c4Cl)CC3)cc2N1 [Aripiprazole] | 75 h | – | Water Solubility [2]: 0.00001%
sucrose acetate isobutyrate [SAIB] | – | – | viscosity ([3]; at 37° C.): about 320,000 cP; viscosity ([3]; at 80° C.): about 600 cP; viscosity ([3]; at about 25° C.): about 2 million
O=C1CC[C@@]2(O)[C@H]3Cc4ccc(O)c5c4[C@@]2(CCN3CC2CC2)[C@H]1O5 [Naltrexone] | – | 1.92 | –
CCNC(=O)[C@@H]1CCCN1C(=O)[C@H](CCCNC(=N)N)NC(=O)[C@H](CC(C)C)NC(=O)[C@@H](CC(C)C)NC(=O)[C@H](Cc1ccc(O)cc1)NC(=O)[C@H](CO)NC(=O)[C@H](Cc1c[nH]c2ccccc12)NC(=O)[C@H](Cc1c[nH]cn1)NC(=O)[C@@H]1CCC(=O)N1 [Leuprolide] | ~3 h | – | –
N[C@@H](Cc1ccc(O)c(O)c1)C(=O)O [Levodopa] | 0.833 h | 0.05 | Water Solubility [2]: 5 mM
CN1CC2c3ccccc3Oc3ccc(Cl)cc3C2C1 (centres unmarked) [Asenapine] | ~24 h | – | –
C[C@@](Cc1ccc(O)c(O)c1)(NN)C(=O)O [Carbidopa] | ~1.78 h | −1.9 | Water Solubility [2]: 3.8 mg/mL; pKa [5]: 2.3
O=C1[C@@H]2[C@H]3CC[C@H](C3)[C@@H]2C(=O)N1C[C@@H]1CCCC[C@H]1CN1CCN(c2nsc3ccccc23)CC1 [Lurasidone] | 18 to 37 h | – | –
Nc1ncn([C@@H]2O[C@H](CO)[C@@H](O)[C@H]2O)c(=O)n1 [Azacitidine] | ~4 h | – | –
Cc1cc(/C=C/C#N)cc(C)c1Nc1ccnc(Nc2ccc(C#N)cc2)n1 [Rilpivirine] | 34 to 55 h | 4.86 | Water Solubility [2]: <0.1 mg/mL
CC(C)OC(=O)[C@H](C)N[P@](=O)(CO[C@H](C)Cn1cnc2c(N)ncnc21)Oc1ccccc1 [TAF Free base, tenofovir alafenamide] | – | – | solubility at 4 days (physchem): 5 mg/mL (≈ 10.5 mM)
Cc1cc2c(s1)Nc1ccccc1N=C2N1CCN(C)CC1 [Olanzapine] | 21 −54 hrs | – | –
COc1cc2c(cc1Cc1cccc(Cl)c1F)c(=O)c(C(=O)O)cn2[C@H](CO)C(C)C [Elvitegravir] | 8.7 h | – | –
Cc1nnc(C(=O)NC(C)(C)c2nc(C(=O)NCc3ccc(F)cc3)c(O)c(=O)n2C)o1 [Raltegravir] | 9 h | – | –
Cc1cn([C@H]2C=C[C@@H](CO)O2)c(=O)[nH]c1=O [Stavudine] | 0.8 to 1.5 h | −0.72 | Water Solubility ([2]; at 21° C.): 5-10 g/100 mL at
CC(C)OC(=O)[C@H](C)N[P@](=O)(CO[C@H](C)Cn1cnc2c(N)ncnc21)Oc1ccccc1.CC(C)OC(=O)[C@H](C)N[P@](=O)(CO[C@H](C)Cn1cnc2c(N)ncnc21)Oc1ccccc1.O=C(O)/C=C/C(=O)O [TAF Hemifumarate] | – | – | Solubility (mg/mL, Calculated as Free Base Equivalent) (ACN, 37° C./5 days): 11 mg/mL; Solubility (mg/mL, Calculated as Free Base Equivalent) (BB, 37° C., asterisk: taken at 4 days as opposed to 5 days): 3.9* mg/mL; Solubility (mg/mL, Calculated as Free Base Equivalent) (DCM, 37° C./5 days): 97 mg/mL; Solubility (mg/mL, Calculated as Free Base Equivalent) (DMSO, 37° C./5 days): 132 mg/mL; Solubility (mg/mL, Calculated as Free Base Equivalent) (NMP, 37° C./5 days): 160 mg/mL; Solubility (mg/mL, Calculated as Free Base Equivalent) (PC, 37° C./5 days): 22 mg/mL
Cc1nc2n(c(=O)c1CCN1CCC(c3noc4cc(F)ccc34)CC1)CCCC2O (centres unmarked) [Paliperidone] | ~23 h | 1.8 | –
O=c1ccc2ccc(OCCCCN3CCN(c4cccc5sccc45)CC3)cc2[nH]1 [Brexpiprazoie] | 91 h | – | –
Nc1ncn([C@H]2C[C@H](O)[C@@H](CO)O2)c(=O)n1 [Decitabine] | 0.51 ± 0.31 h | – | –
C[C@@H]1CCO[C@H]2Cn3cc(C(=O)NCc4ccc(F)cc4F)c(=O)c(O)c3C(=O)N12 [Dolutegravir] | 14 h | 2.2 | Water Solubility ([2]; in words): Slightly soluble
Nc1ccn([C@H]2CC[C@@H](CO)O2)c(=O)n1 [Zalcitabine] | 2 h | – | –
